Test results: patent US8680320B2, “Heavy metal binding compounds and their method of use” (Life Technologies Corporation, priority 2006, dated 2014)
Entries after “also recorded” stand apart in the source; their conditions may differ.

Columns and labels:
[1] = Fluorescence titration of cadmium ions in cuvettes; assay type: binding; conditions: 50 mM MOPS pH 7, metal titrated up to 100 μM
Experimental: A dye stock (709 μM) solution of Compound 10 was prepared in DMSO. Lead, cadmium and mercury solutions from 0-100 μM were prepared in disposable cuvettes by diluting a 100 μM metal stock solutions to a final volume of 2 mL with 50 mM MOPS (pH7). The 100 μM metal stocks were also in 50 mM MOPS (pH7). For the cadmium titration, dye stock was added to give a final concentration of 0.35 μM. For the lead and mercury titrations, dye stock was added to give a final concentration of 1.42 μM. Samples were excited at 492 nm and fluorescence was recorded at 517 nm. […] See, FIG. 2.
The experiment was performed as described above except that the exact dye concentrations were unknown. Sample was dissolved in DMSO and diluted 2× in nano-pure H2O before running. Ex./Em. 549/577 nm. […] See, FIG. 1.
The experiment was performed as described above for cadmium ion detection except that the exact dye concentrations were unknown. Ex./Em. 348/397/481 nm (ratiometric).

[2] = system: intracellular Pb or Cd ions in 3T3 cells; assay: Compound 12 on 3T3 cells with PbCl2 or CdCl2, then TPEN chelation; assay type: cell-based; conditions: 400 nM Compound 12, 1 μM ionomycin
Experimental: 500 nM, 250 nM and 125 nM of PbCl2 and at concentration range 100 uM, 50 μM and 25 μM of CdCl2.
After fluorescence acquisition, TPEN, a cell-permeant heavy metal chelator, was added to the samples.

| SMILES | Kd [1] [nM] | Change of Compound 12 fluorescence after addition of the chelator [2] |
| --- | --- | --- |
| O=C(O)COc1ccccc1OCCOc1cc(-c2cc3ccc(C(=O)O)cc3[nH]2)ccc1N(CC(=O)O)CC(=O)O [Compound 18] | 1200 | – |
| c1ccc(CN(CCN(Cc2ccccn2)Cc2ccccn2)Cc2ccccn2)nc1 [TPEN, tetrakis-(2-pyridylmethyl)ethylenediamine] | – | drop of fluorescence after TPEN addition; also recorded: drop in fluorescence from the viable cells |
